{"source": "patent US20160367622A1", "about": "“AGONISTS OF GUANYLATE CYCLASE USEFUL FOR THE TREATMENT OF OPIOID INDUCED DYSFUNCTIONS” (priority 2013, published 2016)", "key": {"[1]": {"system": "opioid naïve animals (rats)", "test": "GI transit after single oral gavage dose in opioid naïve rats", "assay_type": "in vivo, rat"}, "[2]": {"system": "female Sprague-Dawley CD rats", "test": "methadone-induced constipation in rats (fecal output)", "assay_type": "in vivo, rat", "description": "To identify the methadone dose that induces constipation in rats, female Sprague-Dawley CD rats 7 to 8 weeks of age (n=6/group) were administered 0 (vehicle), 2.5, 5, and 7.5 mg/kg of methadone (1.5 ml/kg dose volume) by IP injection once a day for 5 days. Fecal pellets were collected at 4 h intervals during the light cycle and average number of pellets was recorded for each group during the course of the study following daily dose administrations of methadone.\nTo evaluate the ability of SP-333 to relieve methadone-induced constipation, female Sprague-Dawley CD rats 7 to 8 weeks of age (n=7/group) were administered 5 mg/kg of methadone (or vehicle) each day for 7 days via IP injection to induce constipation. Ten minutes following the IP dose each day, an oral gavage of 2.5, and 5 mg/kg of SP-333 or vehicle (buffer) was administered. Fecal pellets were collected at 4 h intervals during the light cycle and average number of pellets recorded for each group during the course of the study following daily administration of vehicle, methadone or combination of methadone and SP-333."}, "[3]": {"system": "T84 cells monolayer"}, "[4]": {"system": "female Sprague-Dawley CD rats", "test": "GI transit delay induced by repeated methadone administration in rats", "assay_type": "in vivo, rat", "conditions": "SP-333 oral daily", "description": "The ability of SP-333 to alleviate GI transit delay induced by repeated methadone administration was also evaluated in the similar manner. Female Sprague-Dawley CD rats 7 to 8 weeks of age (n=7/group) received via IP injection 16 doses of methadone (once daily; 7 doses @ 5 mg/kg and 9 doses @ 2.5 mg/kg). Ten minutes following each methadone dose, each group received an oral gavage of vehicle, 2.5, and 5 mg/kg of SP-333. At the end of the dosing regimen, animals were fasted overnight and GI transit was evaluated as described above."}}, "note": "Entries after “also recorded” stand apart in the source; their conditions may differ. Positions of bridges follow the written chain, without caps; N, C: chain ends. Non-standard residues stand in square brackets, D forms with d. Residues, ends and D or L forms follow the SMILES beside them."}
{"smiles": "CC(C)C[C@@H]1NC(=O)[C@H](CCC(=O)O)NC(=O)[C@@H](NC(=O)[C@H](CCC(=O)O)NC(=O)[C@H](CC(=O)O)NC(=O)[C@H](N)CC(N)=O)CSSC[C@@H]2NC(=O)[C@H](C)NC(=O)[C@H](C(C)C)NC(=O)[C@H](CC(N)=O)NC(=O)[C@H](C(C)C)NC(=O)[C@H](CSSC[C@@H](C(=O)N[C@H](CC(C)C)C(=O)O)NC(=O)CNC(=O)[C@H]([C@@H](C)O)NC2=O)NC1=O", "note": "[SP-333, dAsn^1-Asp^2-Glu^3-Cys^4-Glu^5-Leu^6-Cys^7-Val^8-Asn^9-Val^10-Ala^11-Cys^12-Thr^13-Gly^14-Cys^15-dLeu^16] (H-[dN]DECELCVNVACTGC[dL]-OH; disulfide 4-12, 7-15)", "values": [{"measurement": "increase in small intestinal (GI) transit compared to vehicle controls", "setting": "[1]; 0.05 mg/kg single oral gavage", "value": 5.6, "unit": "%"}, {"measurement": "increase in small intestinal (GI) transit compared to vehicle controls", "setting": "[1]; 0.5 mg/kg single oral gavage", "value": 13, "unit": "%"}, {"measurement": "increase in small intestinal (GI) transit compared to vehicle controls", "setting": "[1]; 5 mg/kg single oral gavage", "value": 23, "unit": "%"}, {"measurement": "pellet count compared to the methadone dosed group", "setting": "[2]; SP-333 2.5 mg/kg oral daily 10 min after methadone (5 mg/kg 7 days, then 2.5 mg/kg days 8-16)", "value": "threefold increase; also recorded: significantly relieved methadone-induced constipation"}, {"measurement": "average number of pellets / fecal output compared to the methadone dosed group", "setting": "[2]; SP-333 2.5 and 5 mg/kg oral daily after methadone (5 mg/kg 7 days, then 2.5 mg/kg days 8-16)", "value": "partially restored fecal output; also recorded: higher compared to the methadone dosed group"}, {"measurement": "increase in Isc", "setting": "[3]; 0.01-10 μM at mucosal surface of T84 cells", "value": "concentration-dependent increase in Isc approaching saturation at 10 μM"}, {"measurement": "stimulation of Isc", "setting": "[3]; treatment from the basolateral chamber, T84 monolayer", "value": "did not stimulate Isc"}, {"measurement": "GI-transit delay caused by repeated methadone dosing", "setting": "[4]; 16 daily methadone doses (7 at 5 mg/kg, 9 at 2.5 mg/kg)", "value": "normalized GI transit; also recorded: relieved the GI-transit delay; also recorded: relieves methadone-induced GI transit delay; also recorded: statistically significant improvement in GI transit delay"}, {"measurement": "GI-transit delay caused by repeated methadone dosing", "setting": "[4]; methadone 2.5 mg/kg IP daily 9 days", "value": "relieved the GI-transit delay"}]}
